Measurements reported in PubChem BioAssay (NCI).
Values joined by “and” are separate entries in the source; they are usually repeats but may differ in a detail not shown here. Identical values can stand only once.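 1) Cells in 96-well plates. 2) Compound, 48 h, 5 concentrations. 3) Linear interpolation between surrounding doses. 4) Unreached endpoint = highest concentration. Here, GI50 denotes the concentration required for 50% inhibition of growth. TGI is the concentration that stops growth completely.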

Legend:
Experiment in all cases: NCI-60 cell line screen, 48 h
[1] = test system: TK-10 renal
[2] = test system: OVCAR-4 ovarian
[3] = test system: HOP-62 NSCLC
[4] = test system: 786-0 renal
[5] = test system: UACC-257 melanoma
[6] = test system: RXF 393 renal
[7] = test system: HCT-15 colon
[8] = test system: NCI-H522 lung
[9] = test system: SF-295 CNS
[10] = test system: HOP-92 NSCLC

Compound O=c1ccnc2c1ccc1[nH]cccc12 has a TGI [1] greater than 100 µM, a TGI [2] greater than 100 µM and a TGI [3] greater than 100 µM. It also gave a TGI [4] greater than 100 µM, a TGI [5] greater than 100 µM and a TGI [6] greater than 100 µM. For the same compound, the TGI [7] was greater than 100 µM and the TGI [8] was greater than 100 µM.
With CC(=O)N/C(=C\c1cccc([N+](=O)[O-])c1)c1nc2c3c(ccc2[nH]1)C(=O)c1ccccc1C3=O the TGI [1] was greater than 100 µM, the TGI [2] was greater than 100 µM and the TGI [3] was greater than 100 µM. The TGI [4] was greater than 100 µM, the TGI [6] was greater than 100 µM and the TGI [7] was greater than 100 µM. The TGI [8] was 99.8 µM, the TGI [9] was greater than 100 µM and the TGI [10] was greater than 100 µM.
For CC1(C)CCC[C@@]2(C)C1CC[C@H]1CC(O)C3(C)CCC12C3 (stereo partly specified), the TGI [1] was 28.7 µM, the TGI [2] was 31.9 µM and the TGI [3] was 34.5 µM. It also gave a TGI [4] of 31.5 µM, a TGI [5] of 32.1 µM and a TGI [6] of 26.1 µM. It also gave a TGI [7] of 32.9 µM, a TGI [8] of 30.3 µM and a TGI [10] of 30.5 µM.
With Nc1cc(-c2cccc(OC(F)(F)F)c2)nc2ccc(N3CCCC3)cc12 the GI50 [1] was 9.57 µM and 13 µM and > 23.5 µM, the TGI [1] was 34.6 µM and > 100 µM and the GI50 [2] was 0.519 µM and 1.16 µM and 1.59 µM. The TGI [2] was greater than 100 µM, the GI50 [3] was 0.0463 µM and 0.0508 µM and 0.0489 µM and the TGI [3] was 22 µM and > 100 µM. For the same compound, the GI50 [4] was 0.0656 µM and 0.078 µM and 0.0573 µM, the TGI [4] was 12.3 µM and > 100 µM and > 47.8 µM and the GI50 [6] was 0.0474 µM and 0.0376 µM and 0.0305 µM. The TGI [6] was 16.4 µM and > 100 µM and > 53.5 µM, the GI50 [7] was 0.0338 µM and 0.0349 µM and 0.0312 µM and the TGI [7] was 11.5 µM and > 100 µM. The GI50 [8] was 0.0394 µM and 0.0351 µM and 0.0297 µM, the TGI [8] was 0.986 µM and the GI50 [9] was 0.0584 µM and 0.0473 µM and 0.0448 µM. For the same compound, the TGI [9] was 5.61 µM and 18.9 µM and > 50.5 µM, the GI50 [10] was 0.0888 µM and 0.184 µM and 0.0868 µM and the TGI [10] was 18.2 µM and > 100 µM and 74.2 µM.
For Cc1cccc(Cl)c1NC(=O)/C=C/c1ccccc1, the TGI [1] was greater than 100 µM, the TGI [2] was 70.1 µM and the TGI [3] was greater than 100 µM. The TGI [4] was greater than 100 µM, the TGI [5] was greater than 100 µM and the TGI [7] was greater than 100 µM. It also gave a TGI [8] greater than 100 µM, a TGI [9] greater than 100 µM and a TGI [10] greater than 100 µM.
For Cc1ccc(/C=C/C(=O)c2sc(-c3cccnc3)nc2C)cc1, the TGI [1] was greater than 100 µM, the TGI [3] was greater than 100 µM and the TGI [4] was greater than 100 µM. For the same compound, the TGI [5] was greater than 100 µM, the TGI [6] was greater than 100 µM and the TGI [7] was greater than 100 µM. The TGI [8] was greater than 100 µM, the TGI [9] was greater than 100 µM and the TGI [10] was greater than 100 µM.
In the case of O=C([CH-]C(=O)c1ccccc1)c1ccccc1.O=C([CH-]C(=O)c1ccccc1)c1ccccc1.O=C([CH-]C(=O)c1ccccc1)c1ccccc1.[OH3+].[Y+3], the GI50 [1] is reported as 7.78 µM, the TGI [1] is reported as 68.4 µM and the GI50 [2] is reported as 8.77 µM. It also gave a TGI [2] of 46 µM, a GI50 [3] of 4.5 µM and a TGI [3] of 22.5 µM. The GI50 [4] was 4.72 µM, the TGI [4] was 21.8 µM and the GI50 [5] was 12 µM. The TGI [5] was 33.2 µM, the GI50 [7] was 4.96 µM and the TGI [7] was 22.8 µM. For the same compound, the GI50 [8] was 2.58 µM, the TGI [8] was 11.1 µM and the GI50 [9] was 3.99 µM. For the same compound, the TGI [9] was 19.1 µM, the GI50 [10] was 10 µM and the TGI [10] was 25.3 µM.
O=C1NC2CCC(C2)C1c1ccccc1 (stereo unspecified) was tested, and the TGI [1] was greater than 100 µM, the TGI [2] was greater than 100 µM and the TGI [4] was greater than 100 µM. The TGI [6] was greater than 100 µM and the TGI [9] was greater than 100 µM.
CC[O-].CC[O-].O=C1C(c2ccccc2)=C([O-])c2ccccc21.O=C1C(c2ccccc2)=C([O-])c2ccccc21.[Ti+4] gave a GI50 [2] greater than 100 µM, a TGI [2] greater than 100 µM and a GI50 [3] greater than 100 µM. For the same compound, the TGI [3] was greater than 100 µM, the GI50 [4] was greater than 100 µM and the TGI [4] was greater than 100 µM. It also gave a GI50 [5] greater than 100 µM, a TGI [5] greater than 100 µM and a GI50 [7] greater than 100 µM. For the same compound, the TGI [7] was greater than 100 µM, the GI50 [8] was greater than 100 µM and the TGI [8] was greater than 100 µM. The GI50 [9] was greater than 100 µM, the TGI [9] was greater than 100 µM and the GI50 [10] was greater than 100 µM. The TGI [10] was greater than 100 µM.
